Measurements published in US9107844B2, “Topical skin treating compositions” (STIEFEL LABORATORIES INC., priority 2006, dated 2015).

Assays:
Type in all cases: physicochemical
[1] = Stability of combined active ingredients, Example 6 composition (benzoyl peroxide/tazarotene/clindamycin); settings: 0.096% tazarotene, […] clindamycin, Initial […], 2 weeks
Protocol: Measurements were taken at the end of 2 weeks. The composition was stored at 2 different temperatures, i.e., 25° C. and 30° C. […]

[2] = Stability of active ingredients, Example 9 composition (benzoyl peroxide/tazarotene); settings: composition 5.18% BPO, 0.099% tazarotene, Initial 5.18%
Excerpt: Tables 9 and 10 show the stability of the active ingredients in a composition containing 5.18% of benzoyl peroxide and 0.099% of tazarotene.
A 2-week and 6-month analysis of the composition was undertaken following the procedure of Example 2.

[3] = Stability of active ingredients, Example 10 composition (benzoyl peroxide/clindamycin); settings: composition 4.84% BPO, 1.08% clindamycin, Initial 4.84%
Excerpt: A 2-week analysis and 6-month analysis of the composition was undertaken following the procedure of Example 2.

O=C(OOC(=O)c1ccccc1)c1ccccc1 [Benzoyl Peroxide]
Benzoyl Peroxide (BPO) (as % w/w) ([1]; 25° C.): 1.06 % w/w | Benzoyl Peroxide (BPO) (as % w/w) ([1]; 30° C.): 1.06 % w/w | Benzoyl Peroxide (BPO) (as % w/w) ([2]; 6° C., 6 months): 5.2 % w/w | Benzoyl Peroxide (BPO) (as % w/w) ([2]; 25° C., 2 weeks): 5.21 % w/w | Benzoyl Peroxide (BPO) (as % w/w) ([2]; 25° C., 6 months): 5.14 % w/w | Benzoyl Peroxide (BPO) (as % w/w) ([3]; 6° C., 2 weeks): 5.53 % w/w | Benzoyl Peroxide (BPO) (as % w/w) ([3]; 6° C., 6 months): 4.81 % w/w | Benzoyl Peroxide (BPO) (as % w/w) ([3]; 25° C., 2 weeks): 5.01 % w/w | Benzoyl Peroxide (BPO) (as % w/w) ([3]; 25° C., 6 months): 4.85 % w/w
